How the values were obtained:
CIRI mice = assay: Flow cytometry of immune cells isolated from the ischemic brain hemisphere; assay type: in vivo, C57BL/6 mice; details: TJ-5 injected at the time of reperfusion
Protocol: After the mice were anesthetized, 0.9% saline was used for transcardial perfusion. The right brain hemispheres were homogenized in a 6-well plate using 2 ml Hank’s balanced salt solution (HBSS, Solarbio) per well. Collagenase IV (1 mg/ml) was added to […]. The brain homogenate was filtered through a 70 μm cell strainer and centrifuged at 300 g for 5 min at 4°C. Then, 2 ml of 30% Percoll (Sigma) were added to resuspend the brain cell precipitate, and the resuspended cells were slowly added to a 15 ml centrifuge tube containing 3 ml of 70% Percoll. The intermediate layer cells were analyzed by flow cytometry after density-gradient centrifugation.
Approximately 5 × 10^5 cells were suspended in 200 μL HBSS, and anti-mouse CD16/CD32 (5 ng/μL) was used to block Fc receptor binding. The cells were stained with allophycocyanin-conjugated CD45 antibody (1 ng/μL), FITC-conjugated CD11b antibody (1 ng/μL), and phycoerythrin-conjugated Ly6G antibody (1 ng/μL) and incubated in the dark at 4°C for 30 min. Finally, the cells were washed with HBSS buffer, resuspended in 200 μL of HBSS, and analyzed using a flow cytometer (BD FACSCalibur).

[1] = system: MyD88/NF-κB and ERK signaling pathway; assay: Simple Western / RT-qPCR of MyD88/NF-κB and ERK pathway in the brain of CIRI mice; assay type: in vivo, C57BL/6 mice; details: TJ-5 15 mg/kg
Protocol: Total mRNA was extracted from the brain cortex using TRIzol reagent and reverse-transcribed into cDNA using the PrimeScript™ RT reagent kit (Takara, Japan), following the manufacturer’s instructions. RT-qPCR was performed using SYBR Green Real-time PCR Master Mix (Takara, Japan) with the Step One System (Life Technologies). The results were expressed as fold change from the untreated control and analyzed using the 2^−ΔΔCt method. The primers were as follows (5′–3′): MyD88 forward: TTTATCTGCTACTGCCCCAACG, reverse: GCGGCGACACCTTTTCTCA; TLR4 forward: ATGCTGCAACTGATGTTCCTTC, reverse: GATGTTAGACCTTTCTTCCTCCC; GAPDH forward: TGTTCCTACCCCCAATGTGTCC, reverse: GGAGTTGCTGTTGAAGTCGCAG; TNF-α forward: ATGGCCTCCCTCTCATCAGT, reverse: TGGTTTGCTACGACGTGGG; IL-6 forward: AGTGGCTAAGGACCAAGAC, reverse: ATAACGCACTAGGTTTGCCGA; iNOS forward: ATTCACAGCTCATCCGGTACG, reverse: GGATCTTGACCATCAGCTTGC; IL-1β forward: GCACTACAGGCTCCGAGATGAA, reverse: GTCGTTGCTTGGTTCTCCTTGT.
Here, Simple Western, a novel immunoassay to detect proteins in the brain, was used, as previously described ([Kannan et al., 2018]; [Nanki et al., 2018]). Briefly, the prepared proteins were diluted to a concentration of 0.5 mg/ml using a sample preparation kit (Protein Simple, United States). Then, according to the manufacturer’s instructions, the prepared reagents were added to the detection plate sequentially for processing in an automated capillary electrophoresis system (Simple Western system). The primary antibodies recognized HMGB1, TLR4, MyD88, NeuN, P-ERK, P-IκBα, IκBα, NF-κB p65 (CST, 1:50), Histone H3 (ABclonal, 1:50), and GAPDH (ABclonal, 1:1000). Compass for SW software v4.0.0 (Protein Simple, United States) was used to quantitatively analyze the signal intensity (area) of the protein.

BV-2 cells = assay: CCK-8 cell viability assay, BV-2; assay type: cell-based; details: concentrations below 20 μM, 24 h
Protocol: (§1) BV-2 and SH-SY5Y cells were seeded in a 96-well plate at a density of 1 × 10^4 cells/well. Twenty-4 hours later, different concentrations of TJ-5 (0, 1, 5, 10, 20, and 30 μM) were added and co-cultured with cells for 24 h. Cell Counting Kit-8 (CCK8, Sigma, Shanghai, China) was used to measure cell viability. Experiments were conducted according to the manufacturer’s instructions. After incubation at 37°C for 2 h, absorbance was measured at 450 nm using a microplate reader (Synergy 2, BioTek Instruments, United States).

SH-SY5Y cells = assay: CCK-8 cell viability assay, SH-SY5Y; assay type: cell-based
Protocol: as §1

[2] = system: OGD/R-stimulated BV-2 cells; assay: OGD/R-stimulated BV-2 cells: TNF-α/IL-6 ELISA; assay type: cell-based
Protocol: Enzyme-linked immunosorbent assay (ELISA) kits were used to detect the levels of TNF-α, IL-1β, and IL-6 in the brain. Brain tissue was homogenized in 1 ml of phosphate-buffered saline using a tissue homogenizer. Then, the homogenates were centrifuged at 14,000 g for 10 min at 4 °C. The supernatant was immediately transferred for measurement following the manufacturer’s instructions. BV-2 cells were incubated with different treatments and the supernatants were collected and measured.

NF-κB p65 = NF-κB p65 nuclear translocation in LPS-stimulated BV-2 cells, immunofluorescence; assay type: cell-based; details: 12 h after LPS stimulation
Protocol: BV-2 microglial and SH-SY5Y cells were cultured as previously described ([Zhao et al., 2020]). A lipopolysaccharide (LPS)-stimulated BV-2 cell model was established to mimic severe neuroinflammation induced by multiple inflammatory mediators after reperfusion ([Li et al., 2021]). BV-2 cells were pretreated with different concentrations of TJ-5 for 2 h before LPS (1 μg/ml) stimulation (#L2880, Sigma, United States). […] In addition, ST2825, a recognized MyD88 inhibitor, was used as positive control group.
For BV-2 cells immunofluorescence staining, the cells were fixed with 4% paraformaldehyde for 10 min and permeabilized with 0.5% Triton X-100 for 10 min. After blocking with goat serum, the cells were sequentially incubated with the primary antibody, secondary antibody, and Hoechst in sequence. Images were captured using a confocal microscope. The fluorescence intensity was analyzed using ImageJ software.

For `O=C(CCN1CCN(Cc2ccccc2)CC1)Nc1nc(-c2ccccc2)cs1` [TJ-5], the “number of brain-infiltrating CD11b+CD45hi myeloid cells” value (CIRI mice) was “reduced the number”, the “proportion of inactive microglia (CD11b+CD45int)” value (CIRI mice) was “increased the proportion” and the “expression of HMGB1, TLR4, and MyD88 in the ischemic hemisphere” value [1] was “downregulated”. The “phosphorylation of ERK in the ischemic hemisphere” value [1] was “inhibited”, the “phosphorylation of IκBα and nuclear translocation of NF-κB p65 in the ischemic hemisphere” value [1] was “reduced” and the “NeuN protein levels in the brain” value ([1]; I/R-induced decrease) was “attenuated this decrease”. The “viability of BV-2 cells” value (BV-2 cells) was “did not affect the viability”, the neurotoxicity (SH-SY5Y cells; SH-SY5Y cells) was “no neurotoxicity” and the “viability of SH-SY5Y cells” value (SH-SY5Y cells; concentrations below 20 μM, 24 h, CCK-8) was “did not affect the viability”. For the same compound, the “levels of TNF-α and IL-6 in supernatants” value [2] was “markedly reduced” and the “LPS-induced NF-κB p65 nuclear translocation” value (NF-κB p65) was “significantly prevented”.
